According to US10888519B2, “Immediate release pharmaceutical composition of iron chelating agents” (Jubilant Generics Limited, priority 2016, dated 2021):

Key:
[1] = Bulk density, tapped density and flow properties (Hausner Ratio, Compressibility Index); type: physicochemical; conditions: for Hausner Ratio: tapped density / bulk density
Description: The composition of present invention were analyzed for bulk and tapped density and flow properties such as Hausner Ratio, Compressibility Index. Bulk Density and Tapped Density is determined using the standard method of Test 616 (Bulk Density and Tapped Density) of USP 32. The Hausner ratio may be calculated using formula ptap/pbulk where ptap represents tapped density of granulate mass and pbulk represents the loose bulk density of granulate mass. A Hausner ratio of <1.25 indicates a powder that is free flowing whereas >1.25 indicates poor flowability. Compressibility index is indirect measure of the flowability of the powder and it is determined according to US Pharmacopeia General Chapter <1174>. The smaller the compressibility index the better the flow properties. For example 5-15 indicates excellent, 12-16 good, 18-21 fair and >23 poor flow.

[2] = cited from earlier work
[3] = listed as Active Pharmaceutical Ingredient

O=C(O)c1ccc(-n2nc(-c3ccccc3O)nc2-c2ccccc2O)cc1 [Deferasirox, 4-[3,5-bis(2-hydroxyphenyl)-1H-1,2,4-triazol-1-yl]benzoic acid]
Tapped Density [1]: 0.300 g/mL
bulk density ([1]; API prior to granulation versus composition): about 0.185 g/mL
bulk density ([1]; Table 4): 0.185 g/mL
Compressibility Index (%) ([1]; listed as API): about 38.33%
Compressibility Index (%) [1, 3]: 38.33% (Very Poor)
Hausner Ratio ([1]; listed as API): about 1.62
Hausner Ratio [1, 3]: 1.62 (Very Poor)
solubility in water [2]: poorly soluble in water
